For four compounds, remaining activity results are on record in article PMC7827406, “Structure–Activity Relationship (SAR) Study of Spautin-1 to Entail the Discovery of Novel NEK4 Inhibitors” (International Journal of Molecular Sciences, 2021).

Like-named read-outs stand apart in the source and are kept apart here.

Common to all, as to experiment: biochemical
Common to all, as to design: Eurofins KinaseProfiler full panel at Km ATP, residual kinase activity (%) relative to DMSO

In one test the target is T1, ACK1(h) (Homo sapiens, UniProt Q07912).
T1 construct: gene TNK2
In outline:
(§1)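 Two 10 µM single-concentration screens were run: a competition-binding screen, in which DNA-tagged kinase bound to immobilized ligands was quantified by qPCR, and a radiometric activity panel at Km ATP. Each is expressed as residual kinase activity (%).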

In the next test the target is T2, CaMKIγ(h) (Homo sapiens, UniProt Q96NX5).
T2 construct: gene CAMK1G
A digest of the protocol: as §1

The next test deals with T3, PDGFRα(D842V)(h) (Homo sapiens, UniProt P16234, D842V).
T3 construct: gene PDGFRA
T3 sequence (P16234 whole entry D842V): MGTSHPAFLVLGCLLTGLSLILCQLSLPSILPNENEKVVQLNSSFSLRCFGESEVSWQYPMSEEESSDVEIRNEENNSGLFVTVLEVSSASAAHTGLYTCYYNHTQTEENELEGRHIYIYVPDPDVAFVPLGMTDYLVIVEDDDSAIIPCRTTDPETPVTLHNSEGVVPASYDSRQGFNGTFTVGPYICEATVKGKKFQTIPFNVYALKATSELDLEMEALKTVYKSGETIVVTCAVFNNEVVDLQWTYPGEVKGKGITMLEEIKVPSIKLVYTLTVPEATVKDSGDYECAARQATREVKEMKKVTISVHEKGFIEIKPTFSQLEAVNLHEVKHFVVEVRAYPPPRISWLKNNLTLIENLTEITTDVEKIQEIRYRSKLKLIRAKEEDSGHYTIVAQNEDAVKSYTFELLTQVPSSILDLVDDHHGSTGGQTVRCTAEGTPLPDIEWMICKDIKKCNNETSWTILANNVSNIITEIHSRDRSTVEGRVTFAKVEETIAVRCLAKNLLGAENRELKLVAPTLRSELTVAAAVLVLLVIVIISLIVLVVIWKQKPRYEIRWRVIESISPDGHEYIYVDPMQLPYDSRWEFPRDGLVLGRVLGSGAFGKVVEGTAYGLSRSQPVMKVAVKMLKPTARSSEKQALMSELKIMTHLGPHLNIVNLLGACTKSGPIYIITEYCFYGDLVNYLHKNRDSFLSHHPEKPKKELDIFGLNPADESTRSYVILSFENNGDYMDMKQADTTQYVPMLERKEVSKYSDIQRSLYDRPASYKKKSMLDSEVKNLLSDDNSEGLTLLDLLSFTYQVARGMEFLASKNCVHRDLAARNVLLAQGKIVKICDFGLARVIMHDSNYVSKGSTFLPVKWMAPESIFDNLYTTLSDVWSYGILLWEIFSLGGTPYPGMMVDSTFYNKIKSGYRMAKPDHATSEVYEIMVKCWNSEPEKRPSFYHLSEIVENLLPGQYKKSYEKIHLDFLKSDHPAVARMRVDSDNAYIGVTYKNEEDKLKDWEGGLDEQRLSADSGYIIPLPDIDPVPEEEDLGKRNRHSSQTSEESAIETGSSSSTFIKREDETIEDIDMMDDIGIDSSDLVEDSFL
In outline:
as §1

Test [1] has as its target T4, PI3 Kinase (p110a(E545K)/p85a)(h) (Homo sapiens, UniProt P42336, E545K).
T4 construct: gene PIK3CA
In outline:
as §1

Test [2] concerns the target T5, PI3 Kinase (p110a/p85a)(m) (Mus musculus, UniProt P42337).
T5 construct: gene Pik3ca
A digest of the protocol: as §1

The target of a further test is T6, PKCι(h) (Homo sapiens, UniProt P41743).
T6 construct: gene PRKCI
T6 sequence (P41743 1-596): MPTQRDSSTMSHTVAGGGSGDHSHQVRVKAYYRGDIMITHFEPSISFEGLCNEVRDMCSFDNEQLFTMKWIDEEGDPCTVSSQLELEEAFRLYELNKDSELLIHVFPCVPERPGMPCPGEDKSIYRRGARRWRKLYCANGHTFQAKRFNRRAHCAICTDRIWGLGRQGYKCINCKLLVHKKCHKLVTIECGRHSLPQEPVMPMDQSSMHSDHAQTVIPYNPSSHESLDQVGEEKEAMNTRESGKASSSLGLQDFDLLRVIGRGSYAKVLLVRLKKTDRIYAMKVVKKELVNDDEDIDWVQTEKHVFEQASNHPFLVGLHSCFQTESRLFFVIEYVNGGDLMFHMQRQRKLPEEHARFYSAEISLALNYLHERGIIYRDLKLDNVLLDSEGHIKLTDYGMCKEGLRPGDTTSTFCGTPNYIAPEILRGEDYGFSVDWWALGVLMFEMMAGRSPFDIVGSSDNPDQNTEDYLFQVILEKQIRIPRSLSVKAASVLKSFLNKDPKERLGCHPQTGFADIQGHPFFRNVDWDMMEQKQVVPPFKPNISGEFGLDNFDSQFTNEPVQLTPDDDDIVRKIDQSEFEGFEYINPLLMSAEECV
A digest of the protocol:
as §1

The next test addresses T7, Ron(h) (Homo sapiens, UniProt Q04912).
T7 construct: gene MST1R
In outline: as §1

In another test the target is T8, Rse(h) (Homo sapiens, UniProt Q06418).
T8 construct: gene TYRO3
T8 sequence (Q06418 1-890): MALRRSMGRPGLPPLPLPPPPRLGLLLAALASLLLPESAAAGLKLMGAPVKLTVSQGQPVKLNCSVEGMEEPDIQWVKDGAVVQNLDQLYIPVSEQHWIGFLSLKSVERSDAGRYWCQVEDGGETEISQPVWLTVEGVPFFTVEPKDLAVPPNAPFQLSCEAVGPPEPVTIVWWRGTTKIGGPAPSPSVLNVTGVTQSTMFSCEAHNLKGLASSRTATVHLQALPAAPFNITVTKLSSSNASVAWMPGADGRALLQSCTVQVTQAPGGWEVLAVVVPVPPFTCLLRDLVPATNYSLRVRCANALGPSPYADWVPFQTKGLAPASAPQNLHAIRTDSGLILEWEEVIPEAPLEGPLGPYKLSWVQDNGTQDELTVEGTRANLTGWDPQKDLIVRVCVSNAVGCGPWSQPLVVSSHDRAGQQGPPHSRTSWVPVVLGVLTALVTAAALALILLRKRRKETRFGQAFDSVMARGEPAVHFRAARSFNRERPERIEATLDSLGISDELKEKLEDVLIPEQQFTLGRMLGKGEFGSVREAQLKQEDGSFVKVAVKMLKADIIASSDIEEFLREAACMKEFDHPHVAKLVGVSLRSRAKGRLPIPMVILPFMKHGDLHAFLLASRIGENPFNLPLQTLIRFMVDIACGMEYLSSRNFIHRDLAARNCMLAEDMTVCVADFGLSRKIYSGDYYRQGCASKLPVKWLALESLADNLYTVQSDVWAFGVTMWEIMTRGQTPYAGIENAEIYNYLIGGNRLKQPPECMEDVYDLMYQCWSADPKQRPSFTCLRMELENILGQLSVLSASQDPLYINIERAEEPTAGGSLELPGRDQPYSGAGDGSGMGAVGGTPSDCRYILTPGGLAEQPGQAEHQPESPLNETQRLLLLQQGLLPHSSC
In outline:
as §1

Another test concerns the target T9, Rsk2(h) (Homo sapiens, UniProt P51812).
T9 construct: gene RPS6KA3
In outline:
as §1

Setting [3] is: read-out: Residual activity (%) 5at.
Where [4] appears, read: read-out: Residual activity (%) 5ay.
Setting [5] is: read-out: Residual activity (%) 5as.
Setting [6] is: read-out: Residual activity (%) Spautin-1 5aa.

T5 sequence (P42337 whole entry): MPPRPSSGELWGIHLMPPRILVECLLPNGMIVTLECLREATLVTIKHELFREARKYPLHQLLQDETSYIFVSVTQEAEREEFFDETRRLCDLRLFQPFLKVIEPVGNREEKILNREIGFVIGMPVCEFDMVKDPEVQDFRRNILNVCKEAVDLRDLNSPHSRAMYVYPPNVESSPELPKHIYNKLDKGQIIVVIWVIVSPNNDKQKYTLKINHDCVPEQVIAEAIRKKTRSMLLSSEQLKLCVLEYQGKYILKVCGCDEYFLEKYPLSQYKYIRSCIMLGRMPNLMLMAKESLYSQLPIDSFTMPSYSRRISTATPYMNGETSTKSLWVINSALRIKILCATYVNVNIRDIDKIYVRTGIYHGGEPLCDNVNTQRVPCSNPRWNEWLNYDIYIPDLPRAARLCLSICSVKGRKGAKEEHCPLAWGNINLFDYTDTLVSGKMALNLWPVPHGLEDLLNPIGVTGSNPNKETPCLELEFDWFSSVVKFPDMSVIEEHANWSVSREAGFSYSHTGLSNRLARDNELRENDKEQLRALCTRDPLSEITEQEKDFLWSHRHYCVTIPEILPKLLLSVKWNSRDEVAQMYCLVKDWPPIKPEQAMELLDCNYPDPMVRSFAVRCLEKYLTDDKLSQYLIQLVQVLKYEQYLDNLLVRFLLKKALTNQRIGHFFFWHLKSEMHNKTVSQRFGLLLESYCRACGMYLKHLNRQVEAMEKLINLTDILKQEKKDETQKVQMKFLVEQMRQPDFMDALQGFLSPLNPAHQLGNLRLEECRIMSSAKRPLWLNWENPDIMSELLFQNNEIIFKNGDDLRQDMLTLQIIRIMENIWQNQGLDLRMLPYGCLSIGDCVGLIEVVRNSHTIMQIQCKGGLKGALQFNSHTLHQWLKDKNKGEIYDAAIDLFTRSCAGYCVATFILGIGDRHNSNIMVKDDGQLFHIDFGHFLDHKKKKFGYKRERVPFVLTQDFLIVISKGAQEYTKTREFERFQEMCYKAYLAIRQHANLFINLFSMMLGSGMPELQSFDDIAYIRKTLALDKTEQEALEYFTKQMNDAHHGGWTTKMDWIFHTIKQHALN
T5 sequence (P26450 whole entry partner): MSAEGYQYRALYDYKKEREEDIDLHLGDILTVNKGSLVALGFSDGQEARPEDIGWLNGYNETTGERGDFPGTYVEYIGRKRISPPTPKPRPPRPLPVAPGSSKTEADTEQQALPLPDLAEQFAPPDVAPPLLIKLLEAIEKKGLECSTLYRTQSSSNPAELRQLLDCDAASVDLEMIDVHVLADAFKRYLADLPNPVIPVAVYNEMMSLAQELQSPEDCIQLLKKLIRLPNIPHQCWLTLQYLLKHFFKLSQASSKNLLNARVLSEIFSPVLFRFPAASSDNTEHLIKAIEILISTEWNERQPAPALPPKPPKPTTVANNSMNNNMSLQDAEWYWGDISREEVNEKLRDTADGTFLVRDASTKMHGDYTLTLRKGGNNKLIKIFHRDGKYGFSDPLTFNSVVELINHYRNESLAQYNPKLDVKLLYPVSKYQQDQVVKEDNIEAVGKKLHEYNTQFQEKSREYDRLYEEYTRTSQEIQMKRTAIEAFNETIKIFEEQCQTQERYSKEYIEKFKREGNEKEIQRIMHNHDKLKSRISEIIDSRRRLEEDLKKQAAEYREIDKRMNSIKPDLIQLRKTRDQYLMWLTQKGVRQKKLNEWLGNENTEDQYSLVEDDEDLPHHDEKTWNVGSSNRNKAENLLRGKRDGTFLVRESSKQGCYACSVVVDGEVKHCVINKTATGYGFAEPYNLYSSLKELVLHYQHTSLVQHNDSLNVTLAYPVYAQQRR
T7 sequence (Q04912 whole entry): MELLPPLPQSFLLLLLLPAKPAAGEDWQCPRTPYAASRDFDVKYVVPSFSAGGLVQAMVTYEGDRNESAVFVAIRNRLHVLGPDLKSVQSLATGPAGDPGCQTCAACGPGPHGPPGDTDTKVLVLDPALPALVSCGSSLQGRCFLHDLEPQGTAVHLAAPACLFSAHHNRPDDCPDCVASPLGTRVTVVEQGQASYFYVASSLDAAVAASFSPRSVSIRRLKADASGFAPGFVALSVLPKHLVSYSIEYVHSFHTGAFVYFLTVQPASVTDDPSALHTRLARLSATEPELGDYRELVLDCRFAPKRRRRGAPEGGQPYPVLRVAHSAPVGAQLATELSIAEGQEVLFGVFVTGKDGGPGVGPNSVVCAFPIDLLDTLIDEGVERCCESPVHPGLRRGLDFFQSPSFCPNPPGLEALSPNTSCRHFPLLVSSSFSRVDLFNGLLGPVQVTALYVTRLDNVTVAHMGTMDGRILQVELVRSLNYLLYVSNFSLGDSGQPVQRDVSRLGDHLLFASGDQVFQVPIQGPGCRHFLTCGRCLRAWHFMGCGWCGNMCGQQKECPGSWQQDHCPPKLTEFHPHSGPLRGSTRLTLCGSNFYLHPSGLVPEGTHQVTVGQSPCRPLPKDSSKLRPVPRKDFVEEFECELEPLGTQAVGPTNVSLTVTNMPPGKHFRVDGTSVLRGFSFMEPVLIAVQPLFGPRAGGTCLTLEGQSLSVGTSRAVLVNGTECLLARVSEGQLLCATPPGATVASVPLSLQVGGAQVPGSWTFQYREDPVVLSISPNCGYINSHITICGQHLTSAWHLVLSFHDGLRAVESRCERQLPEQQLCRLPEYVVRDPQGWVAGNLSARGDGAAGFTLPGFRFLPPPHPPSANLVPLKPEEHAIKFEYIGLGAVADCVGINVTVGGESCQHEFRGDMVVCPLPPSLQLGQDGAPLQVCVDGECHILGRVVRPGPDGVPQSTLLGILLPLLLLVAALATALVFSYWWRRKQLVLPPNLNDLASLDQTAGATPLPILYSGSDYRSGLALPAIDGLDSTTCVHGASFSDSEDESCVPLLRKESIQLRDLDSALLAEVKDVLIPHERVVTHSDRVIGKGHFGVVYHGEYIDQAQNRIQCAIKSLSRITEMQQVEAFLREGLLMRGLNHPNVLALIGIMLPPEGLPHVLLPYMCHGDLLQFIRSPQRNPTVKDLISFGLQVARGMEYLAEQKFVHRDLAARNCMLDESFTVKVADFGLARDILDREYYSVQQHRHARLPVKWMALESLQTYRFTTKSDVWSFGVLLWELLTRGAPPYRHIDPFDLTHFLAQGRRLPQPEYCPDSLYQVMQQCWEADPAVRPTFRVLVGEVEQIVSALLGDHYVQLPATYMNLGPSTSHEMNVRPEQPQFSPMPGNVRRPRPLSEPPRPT
T9 sequence (P51812 whole entry): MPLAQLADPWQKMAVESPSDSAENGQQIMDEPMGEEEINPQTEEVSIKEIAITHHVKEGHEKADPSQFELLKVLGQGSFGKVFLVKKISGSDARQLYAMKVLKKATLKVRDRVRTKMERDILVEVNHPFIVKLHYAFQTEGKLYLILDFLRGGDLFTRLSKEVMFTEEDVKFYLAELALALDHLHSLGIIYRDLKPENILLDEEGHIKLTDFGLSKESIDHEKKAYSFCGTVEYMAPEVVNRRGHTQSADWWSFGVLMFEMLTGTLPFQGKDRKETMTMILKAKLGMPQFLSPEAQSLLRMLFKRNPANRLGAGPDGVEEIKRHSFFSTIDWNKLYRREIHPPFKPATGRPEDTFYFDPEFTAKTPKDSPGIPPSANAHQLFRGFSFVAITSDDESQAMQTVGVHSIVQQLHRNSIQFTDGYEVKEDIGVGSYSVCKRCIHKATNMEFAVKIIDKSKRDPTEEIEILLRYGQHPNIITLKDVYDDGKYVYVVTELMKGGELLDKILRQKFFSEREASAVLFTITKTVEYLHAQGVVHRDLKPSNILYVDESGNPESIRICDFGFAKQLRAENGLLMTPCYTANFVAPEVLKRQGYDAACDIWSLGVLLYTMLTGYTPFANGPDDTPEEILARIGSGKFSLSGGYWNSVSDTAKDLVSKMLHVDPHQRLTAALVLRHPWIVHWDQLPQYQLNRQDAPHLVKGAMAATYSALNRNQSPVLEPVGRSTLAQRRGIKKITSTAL

As for `Fc1ccc2ncnc(NCCc3ccc(Cl)cc3)c2c1` [5at, N-[2-(4-Chlorophenyl)Ethyl]-6-Fluoro-4-Quinazolinamine], the remaining activity at 10 µM at ACK1(h) (setting [3]) amounted to 71%; at CaMKIγ(h) (setting [3]) it was 87%; on PDGFRα(D842V)(h) (setting [3]), 86%; in [1] (setting [3]), 91%; in test [2] (setting [3]), 82%; on PKCι(h) (setting [3]), 98%. The remaining activity at 10 µM on Ron(h) (setting [3]) worked out at 101%; at Rse(h) (setting [3]) it was 103%; on Rsk2(h) (setting [3]) it was 73%.
On to `COc1ccc2ncnc(Nc3cccc(F)c3)c2c1` [5ay, N-(3-Fluorophenyl)-6-Methoxy-4-Quinazolinamine], for which the remaining activity at 10 µM on ACK1(h) (setting [4]) came to 56%; on CaMKIγ(h) (setting [4]), 94%; on PDGFRα(D842V)(h) (setting [4]) it was 50%; in test [1] (setting [4]), 81%; in test [2] (setting [4]), 84%; at PKCι(h) (setting [4]), 89%. For the same compound, the remaining activity at 10 µM came out at 88% on Ron(h) (setting [4]), 107% on Rse(h) (setting [4]) and 70% on Rsk2(h) (setting [4]).
For the compound `Fc1ccc(CCNc2ncnc3ccc(F)cc23)cc1` [5as, 6-Fluoro-N-[2-(4-Fluorophenyl)Ethyl]-4-Quinazolinamine], the remaining activity at 10 µM on ACK1(h) (setting [5]) was 84%; on CaMKIγ(h) (setting [5]), 94%; on PDGFRα(D842V)(h) (setting [5]), 92%; in test [1] (setting [5]), 93%; in test [2] (setting [5]), 83%; at PKCι(h) (setting [5]), 114%. In addition, the values for the remaining activity at 10 µM on Ron(h) (setting [5]), on Rse(h) (setting [5]) and on Rsk2(h) (setting [5]) were 109%, 100% and 79%, respectively.
As to `Fc1ccc(CNc2ncnc3ccc(F)cc23)cc1` [5aa, 6-Fluoro-N-(4-fluorobenzyl)-4-Quinazolinamine], the remaining activity at 10 µM at ACK1(h) (setting [6]) came to 85%; on CaMKIγ(h) (setting [6]), 95%; on PDGFRα(D842V)(h) (setting [6]) it was 114%; in [1] (setting [6]), 96%; in [2] (setting [6]), 86%; on PKCι(h) (setting [6]), 84%. The remaining activity at 10 µM on Ron(h) (setting [6]) was determined as 98%; at Rse(h) (setting [6]) it was 104%; on Rsk2(h) (setting [6]), 93%.
